Values after ≈ are worked out from the molar mass of the structure shown. Where two headings read alike, the source gives them in different places.
Tests used:
S. aureus Mu50 = experiment: microbe, parasite or virus in culture; assay type: cell-based, Staphylococcus aureus; details: for MIC ratio (Mu50 MIC/FDA209P MIC): MIC for S. aureus Mu50 / MIC for S. aureus FDA209P; for MIC: S. aureus Mu50, quinolone-resistant MRSA, ParC S80F, GyrA S84L
Experimental: (§1) Then, the cell suspension was diluted 500 times with CAMHB mentioned above.

[1] = tested on: S. aureus FDA209P (ATCC 6538P); experiment: microbe, parasite or virus in culture; assay type: cell-based, Staphylococcus aureus; details: quinolone-susceptible MSSA, ParC 80S, GyrA 84S
Experimental: as §1

E. coli strain 1709 = experiment: Antibacterial activity against Escherichia coli
Source text: (§6) The numerical values in the tables indicate MIC (mg/L), Res means resistant bacterium, and Sus means susceptible bacterium.
(§7) Antibacterial activities against Escherichia coli of the compounds shown Table 19 were examined by the following method.
(§8) After completion of the culture, the cells were suspended in fresh TBS to prepare a cell suspension showing an absorbance of 0.3 at 578 nm.

E. coli strain 1708 = experiment: Antibacterial activity against Escherichia coli
Source text: as §6, §7, §8

S. pneumoniae KBSP11 = experiment: MIC against pneumococcus, CAMHB with 5 mass % LHB; assay type: cell-based, Streptococcus pneumoniae; details: Streptococcus pneumoniae, PRSP
Experimental: (§2) The S. pneumoniae strains used for this test belong to any one of the categories of penicillin-susceptible pneumococcus (penicillin-susceptible Streptococcus pneumoniae, PSSP), penicillin-intermediate pneumococcus (penicillin-intermediate Streptococcus pneumoniae, PISP), and penicillin-resistant pneumococcus (penicillin-resistant Streptococcus pneumoniae, PRSP).
(§3) The lysed horse blood was prepared by adding sterilized water to horse sterile defibered blood (produced by Nippon Bio-Supp. Center) at a ratio of 1:1, subjecting the mixture to freezing and thawing 5 times, then centrifuging the mixture twice at 10,000 rpm for 20 minutes, and filtering the supernatant through a filter.
(§4) The S. pneumoniae strains mentioned in Table 11 were each cultured overnight at 37° C. on a blood agar medium as stationary culture. The blood agar medium was prepared by adding 5 mass % ovine sterile defibered blood (produced by Nippon Bio-Supp. Center) to a heart infusion agar medium (produced by EIKEN CHEMICAL). Each S. pneumoniae strain cultured overnight at 37° C. as stationary culture was further subcultured overnight at 37° C. on fresh blood agar medium as stationary culture. After completion of the culture, cells of each pneumococcus strain were collected with a swab, and suspended in physiological saline, and the suspension was adjusted with physiological saline to show absorbance of 0.08 to 0.13 at 625 nm as measured with an absorbance meter (produced by Amersham), and further diluted 200 times with CAMHB containing 5 mass % LHB.
(§5) In Table 11, the amino acid substitution mutations in QRDR of the strains are underlined.

S. pneumoniae BCLSP37 = experiment: MIC against pneumococcus, CAMHB with 5 mass % LHB; assay type: cell-based, Streptococcus pneumoniae; details: Streptococcus pneumoniae, BCLSP37, S. pneumoniae BCLSP37, PSSP, quinolone-resistant; ParC 79Phe, GyrA 85Lys; read-out: MIC
Experimental: as §2, §3, §4, §5

[2] = Staphylococcus aureus, ATCC 6538P / FDA209P / MSSA, read-out: MIC

Compound	MIC ratio (Mu50 MIC/FDA209P MIC) (S. aureus Mu50)	MIC (S. aureus Mu50)	MIC [1]	MIC (S. aureus Mu50; Staphylococcus aureus, MRSA)	MIC [1, 2]	MIC (E. coli strain 1709)	MIC (E. coli strain 1708)	MIC (S. pneumoniae KBSP11)	MIC (S. pneumoniae BCLSP37)
CCc1cc(=O)n(C2CC2)c2cc(-c3ccc(O)cc3)c(F)cc12 [J-150, 1-cyclopropyl-4-ethyl-6-fluoro-7-(4-hydroxyphenyl)hydroquinolin-2-one]	0.0625	0.25 µg/mL (≈ 0.773 µM)	4 µg/mL (≈ 12.4 µM)						
O=c1cc(CO)c2cc(Cl)c(-c3ccc(O)cc3)cc2n1C1CC1 [J-152]				0.25 µg/mL (≈ 0.731 µM)	1 µg/mL (≈ 2.93 µM)	128 µg/mL (≈ 374 µM)	128 µg/mL (≈ 374 µM)		
CCn1c(=O)cc(CO)c2cc(F)c(-c3ccc(O)cc3)cc21 [J-131E, 1-ethyl-6-fluoro-4-(hydroxymethyl)-7-(4-hydroxyphenyl)hydroquinolin-2-one]	0.25	0.5 µg/mL (≈ 1.6 µM)	2 µg/mL (≈ 6.38 µM)						
9-(hydroxyphenyl)-6-methyloxazolo[5,4,3-ij]quinolin-4(2H)-one [J-2.1.1]	0.5	16 µg/mL	32 µg/mL						
Nc1ccc(-c2cc3c(cc2F)c(COC(=O)CCC(=O)O)cc(=O)n3C2CC2)cc1 [J-136, 3-({[7-(4-aminophenyl)-1-cyclopropyl-6-fluoro-2-oxo-4-hydroquinolyl]methyl}oxycarbonyl)propanoic acid]	0.25	8 µg/mL (≈ 18.8 µM)	32 µg/mL (≈ 75.4 µM)						
CCC(=O)OCc1cc(=O)n(C2CC2)c2cc(-c3ccc(N)cc3)c(F)cc12 [J-138, [7-(4-aminophenyl)-1-cyclopropyl-6-fluoro-2-oxo-4-hydroquinolyl]methyl propanoate]	1	2 µg/mL (≈ 5.26 µM)	2 µg/mL (≈ 5.26 µM)						
COc1c(-c2ccc(O)cc2)ccc2c(CO)cc(=O)n(C3CC3)c12 [J-157, 1-cyclopropyl-8-methoxyl-4-(hydroxymethyl)-7-(4-hydroxyphenyl)hydroquinolin-2-one]	0.5	2 µg/mL (≈ 5.93 µM)	4 µg/mL (≈ 11.9 µM)						
CN1CCN(c2cc3c(cc2F)c(CO)cc(=O)n3C2CC2)CC1 [J-146, 1-cyclopropyl-6-fluoro-4-(hydroxymethyl)-7-(4-methylpiperazin-1-yl)quinolin-2(1H)-one]	1			16 µg/mL (≈ 48.3 µM)	16 µg/mL (≈ 48.3 µM)				
Cc1cc2c(CO)cc(=O)n(C3CC3)c2cc1-c1ccc(O)cc1 [J-140, 1-cyclopropyl-4-(hydroxymethyl)-7-(4-hydroxyphenyl)-6-methylhydroquinolin-2-one]	0.25	0.25 µg/mL (≈ 0.778 µM)	1 µg/mL (≈ 3.11 µM)						
O=c1cc(CO)c2cc(F)c(N3CCC(O)CC3)cc2n1C1CC1 [J-147, 1-cyclopropyl-6-fluoro-4-(hydroxymethyl)-7-(4-hydroxypiperidin-1-yl)quinolin-2(1H)-one]	0.5			16 µg/mL (≈ 48.1 µM)	32 µg/mL (≈ 96.3 µM)				
Cn1c(=O)cc(CO)c2cc(F)c(-c3ccc(O)cc3)cc21 [J-131, 6-fluoro-4-(hydroxymethyl)-7-(4-hydroxyphenyl)-1-methylhydroquinolin-2-one]	0.25	4 µg/mL (≈ 13.4 µM)	16 µg/mL (≈ 53.5 µM)						
NC(=O)c1cc(=O)n(C2CC2)c2cc(-c3ccc(O)cc3)c(F)cc12 [J-173]				2 µg/mL (≈ 5.91 µM)	8 µg/mL (≈ 23.6 µM)	128 µg/mL (≈ 378 µM)	128 µg/mL (≈ 378 µM)	8 µg/mL (≈ 23.6 µM)	8 µg/mL (≈ 23.6 µM)
O=c1cc(O)c2ccc(-c3ccc(O)cc3)c(OC(F)F)c2n1C1CC1 [J-158]				4 µg/mL (≈ 11.1 µM)	8 µg/mL (≈ 22.3 µM)	128 µg/mL (≈ 356 µM)	128 µg/mL (≈ 356 µM)		
O=C(O)c1c(CO)c2cc(F)c(-c3ccc(O)cc3)cc2n(C2CC2)c1=O [J-169]				8 µg/mL (≈ 21.7 µM)	8 µg/mL (≈ 21.7 µM)	16 µg/mL (≈ 43.3 µM)	128 µg/mL (≈ 347 µM)		
O=c1cc(CO)c2ccc(-c3ccc(O)cc3)cc2n1C1CC1 [J-121Cp, 1-cyclopropyl-4-hydroxymethyl-7-(4-hydroxy-phenyl)-1H-quinolin-2-one]	0.5			0.5 µg/mL (≈ 1.63 µM)	1 µg/mL (≈ 3.25 µM)				
Nc1c(CO)c2cc(F)c(-c3ccc(O)cc3)cc2n(C2CC2)c1=O [J-179]				1 µg/mL (≈ 2.94 µM)	0.5 µg/mL (≈ 1.47 µM)	128 µg/mL (≈ 376 µM)	128 µg/mL (≈ 376 µM)		
CC(=O)OCc1cc(=O)n(C2CC2)c2cc(-c3ccc(O)cc3)c(F)cc12 [J-131ACp, [1-cyclopropyl-6-fluoro-7-(4-hydroxyphenyl)-2-oxo-4-hydroquinolyl]methyl.acetate]	0.0625			4 µg/mL	64 µg/mL	128 µg/mL	128 µg/mL		
Cn1c(=O)cc(CO)c2ccc3c(c21)OCO3 [J-103, 6-(hydroxymethyl)-9-methyl-9-hydro-2H-1,3-dioxoleno[4,5-h]quinolin-8-one]	0.125	16 µg/mL (≈ 68.6 µM)	128 µg/mL (≈ 549 µM)						
C[C@H]1COc2c(-c3ccc(O)cc3)c(F)cc3c(CO)cc(=O)n1c23 [J-149A]				0.5 µg/mL (≈ 1.46 µM)	0.25 µg/mL (≈ 0.732 µM)	16 µg/mL (≈ 46.9 µM)	128 µg/mL (≈ 375 µM)		
Cn1c(=O)cc(CO)c2cc(F)c(-c3ccc(N)cc3)cc21 [J-132, 7-(4-aminophenyl)-6-fluoro-4-(hydroxymethyl)-1-methylhydroquinolin-2-one]	0.0625	8 µg/mL (≈ 26.8 µM)	128 µg/mL (≈ 429 µM)						
CNc1ncc(-c2ccc3c(CO)cc(=O)n(C4CC4)c3c2)cc1C [J-165]				8 µg/mL (≈ 23.9 µM)	4 µg/mL (≈ 11.9 µM)	128 µg/mL (≈ 382 µM)	128 µg/mL (≈ 382 µM)		
COCc1cc(=O)n(C2CC2)c2cc(-c3ccc(O)cc3)c(F)cc12 [J-175]				0.5 µg/mL (≈ 1.47 µM)	1 µg/mL (≈ 2.95 µM)	128 µg/mL (≈ 377 µM)	128 µg/mL (≈ 377 µM)	32 µg/mL (≈ 94.3 µM)	8 µg/mL (≈ 23.6 µM)
Nc1ccc(-c2cc3c(cc2F)c(COC(=O)CC(=O)O)cc(=O)n3C2CC2)cc1 [J-135, 2-({[7-(4-aminophenyl)-1-cyclopropyl-6-fluoro-2-oxo-4-hydroquinolyl]methyl}oxycarbonyl)acetic acid]	1	8 µg/mL (≈ 19.5 µM)	8 µg/mL (≈ 19.5 µM)						
CC(=O)N1COc2c1ccc1c(CO)cc(=O)n(C)c21 [J-125a, 3-acetyl-6-(hydroxymethyl)-9-methyl-8-oxo 9-hydro-2H-1,3-oxazolino[4,5-h]quinoline]	0.125	16 µg/mL (≈ 58.3 µM)	128 µg/mL (≈ 467 µM)						
O=c1cc(CO)c2ccc(-c3ccc(O)cc3)c3c2n1CO3 [J-2.1.2, 6-(hydroxymethyl)-9-(4-hydroxyphenyl)oxazolo[5,4,3-ij]quinolin-4(2H)-one]	0.125			16 µg/mL (≈ 54.2 µM)	128 µg/mL (≈ 433 µM)				
Cc1cc(=O)n2c3c(c(-c4ccc(O)cc4)c(F)cc13)OCC2C (stereo not drawn) [J-149d]				0.5 µg/mL (≈ 1.54 µM)	1 µg/mL (≈ 3.07 µM)	128 µg/mL (≈ 393 µM)	128 µg/mL (≈ 393 µM)		
Cc1cc(=O)n(C)c2cc(-c3ccc(O)cc3)ccc12 [J-121Me]	0.0313			4 µg/mL (≈ 15.1 µM)	128 µg/mL (≈ 482 µM)				

— US20160257651A1, “NOVEL COMPOUND WITH ANTIBACTERIAL ACTIVITY” (priority 2013, published 2016)
